{"source": "patent US20260151414A1", "about": "“COMPOSITIONS AND THERAPEUTIC METHODS FOR TREATING CHRONIC SEQUALAE FOLLOWING VIRAL INFECTIONS” (priority 2023, published 2026)", "key": {"Covid-19 [1]": {"system": "Covid-19", "details": "cited from earlier work"}, "PASC (Long Covid)": {"system": "PASC (Long Covid)", "assay": "Clinical example: inventor's self-treatment of Long Covid (PASC) symptoms", "assay_type": "in vivo, human", "details": "for relief of constant headache: person, symptoms returning from mid-December 2020 after Covid, self-medication"}, "ACE2 receptor": {"target": "ACE2 receptor (Homo sapiens, UniProt Q9BYF1)", "sequence (Q9BYF1 18-805)": "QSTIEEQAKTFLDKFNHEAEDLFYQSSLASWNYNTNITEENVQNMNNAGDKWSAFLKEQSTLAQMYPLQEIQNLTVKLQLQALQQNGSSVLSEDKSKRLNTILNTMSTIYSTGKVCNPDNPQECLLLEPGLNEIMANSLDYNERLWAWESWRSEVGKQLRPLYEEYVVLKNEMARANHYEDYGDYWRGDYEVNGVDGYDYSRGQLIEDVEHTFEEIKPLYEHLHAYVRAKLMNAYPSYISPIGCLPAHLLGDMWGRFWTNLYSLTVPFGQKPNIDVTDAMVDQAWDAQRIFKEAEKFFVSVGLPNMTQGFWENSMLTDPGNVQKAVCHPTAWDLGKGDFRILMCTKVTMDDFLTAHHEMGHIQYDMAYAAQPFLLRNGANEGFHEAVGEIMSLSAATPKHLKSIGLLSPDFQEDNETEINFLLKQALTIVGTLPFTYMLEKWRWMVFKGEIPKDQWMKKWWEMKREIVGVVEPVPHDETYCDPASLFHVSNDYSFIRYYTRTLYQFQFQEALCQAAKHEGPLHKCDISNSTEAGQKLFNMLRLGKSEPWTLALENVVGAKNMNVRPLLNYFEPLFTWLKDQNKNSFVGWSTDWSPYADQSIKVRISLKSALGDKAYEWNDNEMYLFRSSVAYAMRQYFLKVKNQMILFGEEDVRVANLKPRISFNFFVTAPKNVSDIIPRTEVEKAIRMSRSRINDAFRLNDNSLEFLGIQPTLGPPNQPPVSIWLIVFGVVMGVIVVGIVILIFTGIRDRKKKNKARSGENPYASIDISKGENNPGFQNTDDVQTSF", "details": "active site of ACE2 receptor; cited from earlier work"}, "Covid-19 [2]": {"system": "Covid-19", "details": "cited from earlier work", "remark": "listed apart in the source"}}}
{"compound": "O=C(O)c1ccccc1", "note": "[Benzioc Acid]", "values": [{"measurement": "antiviral properties for Covid-19", "setting": "Covid-19 [1]", "result": "strong antiviral properties"}]}
{"compound": "CC(=O)Oc1ccccc1C(=O)O", "note": "[aspirin]", "values": [{"measurement": "relief of constant headache", "setting": "PASC (Long Covid)", "result": "would not go away"}]}
{"compound": "O=c1c(O)c(-c2ccc(O)c(O)c2)oc2cc(O)cc(O)c12", "note": "[Quercetin]", "values": [{"measurement": "energy and headaches", "setting": "PASC (Long Covid); Black Seed Oil and Quercetin (with Zinc) used together, within a few days of using them", "result": "an increase in energy and I was having fewer headaches"}]}
{"compound": "O=C(O)C=Cc1ccccc1", "note": "[Cinnamic Acid]", "values": [{"measurement": "blocking of Covid-19 via ACE2 receptor", "setting": "ACE2 receptor", "result": "block Covid-19 via the active site of ACE2 receptor"}]}
{"compound": "C=C1CC[C@@H]2[C@](C)(CO)[C@H](O)CC[C@@]2(C)[C@@H]1C/C=C1/C(=O)OC[C@H]1O", "note": "[andrographolide]", "values": [{"measurement": "inhibitory effect against Covid-19", "setting": "Covid-19 [2]", "result": "potent inhibitory effect"}]}
{"compound": "COc1ccc2cc([C@H](C)C(=O)O)ccc2c1", "note": "[naproxen]", "values": [{"measurement": "relief of constant headache", "setting": "PASC (Long Covid)", "result": "would not go away"}]}
{"compound": "CC(C)Cc1ccc(C(C)C(=O)O)cc1", "note": "(stereo not shown) [ibuprofen]", "values": [{"measurement": "relief of constant headache", "setting": "PASC (Long Covid)", "result": "would not go away"}]}
